Consider 2 molecules from US7718637B2, “(20S)-23,23-difluoro-methylene-19-nor-bishomopregnacalciferol-vitamin D analogs” (Wisconsin Alumni Research Foundation, priority 2007, dated 2010).

Each structure is given as a SMILES string. Like-named read-outs stand apart in the source and are kept apart here.

Assay [1] has as its system 24-hydroxylase (24Ohase) gene promoter in ROS 17/2.8 (bone) cells. Nature of the assay: In vitro transcription assay (24-hydroxylase promoter luciferase reporter). It counts as cell-based. The note with it: FIG. 3; for EC50: ROS 17/2.8 cells, 24-hydroxylase promoter-luciferase, read-out: EC50, transcriptional activity in bone cells. The method, then:
In Vitro Transcription Assay
Transcription activity was measured in ROS 17/2.8 (bone) cells that were stably transfected with a 24-hydroxylase (24Ohase) gene promoter upstream of a luciferase reporter gene (Arbour et al., 1998). Cells were given a range of doses. Sixteen hours after dosing the cells were harvested and luciferase activities were measured using a luminometer.
RLU=relative luciferase units.
(In general: Reporter assays use an easily measured gene product as a stand-in for the process of interest.)

A short description of assay [2]: Intestinal calcium transport (everted gut sac method) in vitamin D-deficient rats. It counts as in vivo, Sprague-Dawley rats. The note with it: FIG. 5; for intestinal calcium transport: everted gut sac. The method, then: (§1) Intestinal Calcium Transport and Bone Calcium Mobilization
(§2) Male, weanling Sprague-Dawley rats were placed on Diet 11 (0.47% Ca) diet +AEK oil for one week followed by Diet 11 (0.02% Ca) +AEK oil for 3 weeks. The rats were then switched to a diet containing 0.47% Ca for one week followed by two weeks on a diet containing 0.02% Ca. Dose administration began during the last week on 0.02% calcium diet. Four consecutive ip doses were given approximately 24 hours apart. Twenty-four hours after the last dose, blood was collected from the severed neck and the concentration of serum calcium determined as a measure of bone calcium mobilization. The first 10 cm of the intestine was also collected for intestinal calcium transport analysis using the everted gut sac method.

A further assay relates to HL-60 cells. The assay is described as follows: HL-60 differentiation (nitro blue tetrazolium reduction). The settings on record: FIG. 2; for EC50: HL-60 cells, read-out: EC50, HL-60 cell differentiation. It counts as cell-based, Human. The method, then:
The study drugs were dissolved in ethanol and the concentrations determined using UV spectrophotometry. Serial dilutions were prepared so that a range of drug concentrations could be tested without changing the final concentration of ethanol (≦0.2%) present in the cell cultures.
Human promyelocytic leukemia (HL60) cells were grown in RPMI-1640 medium containing 10% fetal bovine serum. The cells were incubated at 37° C. in the presence of 5% CO2.
HL60 cells were plated at 1.2×10^5 cells/ml. Eighteen hours after plating, cells in duplicate were treated with drug. Four days later, the cells were harvested and a nitro blue tetrazolium reduction assay was performed (Collins et al., 1979; J. Exp. Med. 149:969-974). The percentage of differentiated cells was determined by counting a total of 200 cells and recording the number that contained intracellular black-blue formazan deposits. Verification of differentiation to monocytic cells was determined by measuring phagocytic activity (data not shown).

Assay [3] can be described thus: Bone calcium mobilization (serum calcium) in vitamin D-deficient rats. Format: in vivo, Sprague-Dawley rats. The note with it: FIG. 4. The method, then:
as §1, §2

In assay [4] the target is T1, full-length recombinant rat vitamin D receptor (Rattus norvegicus, UniProt P13053).
T1 construct: Full-length recombinant rat receptor was expressed in E. coli BL21 (DE3) Codon Plus RIL cells; histidine tag (C); made in house; host or cells: E. coli BL21 (DE3) Codon Plus RIL
T1 sequence (P13053 1-423): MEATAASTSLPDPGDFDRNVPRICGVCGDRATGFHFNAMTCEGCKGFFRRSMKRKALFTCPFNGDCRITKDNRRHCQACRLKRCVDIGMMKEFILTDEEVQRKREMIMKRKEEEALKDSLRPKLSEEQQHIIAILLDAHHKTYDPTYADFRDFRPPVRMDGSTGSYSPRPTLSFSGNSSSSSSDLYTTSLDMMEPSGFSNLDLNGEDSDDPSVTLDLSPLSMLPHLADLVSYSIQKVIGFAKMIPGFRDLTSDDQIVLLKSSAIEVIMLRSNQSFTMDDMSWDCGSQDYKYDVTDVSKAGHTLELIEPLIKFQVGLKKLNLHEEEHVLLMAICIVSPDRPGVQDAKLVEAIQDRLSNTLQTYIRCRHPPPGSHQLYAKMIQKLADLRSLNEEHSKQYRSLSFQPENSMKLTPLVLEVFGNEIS
Nature of the assay: Vitamin D receptor binding (competition with [3H]-1,25(OH)2D3). The note with it: full-length recombinant rat VDR; FIG. 1. From the text: Vitamin D Receptor Binding
Full-length recombinant rat receptor was expressed in E. coli BL21 (DE3) Codon Plus RIL cells and purified to homogeneity using two different column chromatography systems. The first system was a nickel affinity resin that utilizes the C-terminal histidine tag on this protein. The protein that was eluted from this resin was further purified using ion exchange chromatography (S-Sepharose Fast Flow). Aliquots of the purified protein were quick frozen in liquid nitrogen and stored at −80° C. until use. For use in binding assays, the protein was diluted in TEDK50 (50 mM Tris, 1.5 mM EDTA, pH7.4, 5 mM DTT, 150 mM KCl) with 0.1% Chaps detergent. The receptor protein and ligand concentration were optimized such that no more than 20% of the added radiolabeled ligand was bound to the receptor.
Radiolabeled and unlabeled ligands were added to 100 mcl of the diluted protein at a final ethanol concentration of ≦10%, mixed and incubated overnight on ice to reach binding equilibrium. The following day, 100 mcl of hydroxylapatite slurry (50%) was added to each tube and mixed at 10-minute intervals for 30 minutes. The hydroxylapaptite was collected by centrifugation and then washed three times with Tris-EDTA buffer (50 mM Tris, 1.5 mM EDTA, pH 7.4) containing 0.5% Titron X-100. […] Total binding was determined from the tubes containing only radiolabeled ligand.

Take `C=C1/C(=C\C=C2/CCC[C@]3(C)[C@@H]([C@H](C)CCCC(C)(C)O)CC[C@@H]23)C[C@@H](O)C[C@@H]1O` [1α,25-dihydroxyvitamin D3, reference compound]: the EC50 (as a rule, the concentration needed to bring the measured effect to its halfway point) in assay [1] was 0.3 nM; with HL-60 cells, 3 nM. For the same molecule, in assay [2] (87 pmol/day), the intestinal calcium transport result is “promotes a significant increase”. In addition, in assay [3] (native hormone, dose not given, vitamin D-deficient rats, 0.02% Ca diet), the “serum calcium levels (bone calcium mobilization)” value is “increased serum calcium levels”.

As for `C=C1[C@H](O)CC(=C/C=C2\CCC[C@]3(C)[C@@H]([C@@H](C)CC(F)F)CC[C@@H]23)C[C@H]1O` [FF-55, (20S)-23,23-difluoro-1α-hydroxy-2-methylene-19-nor-bishomopregnacalciferol], the “transcriptional activity in bone cells compared to 1α,25-dihydroxyvitamin D3 (in words)” value in assay [1] is recorded as “about the same transcriptional activity”. Moreover, the EC50 in assay [1] is 3 nM; in the assay with HL-60 cells (Homo sapiens), 10 nM. Besides, the intestinal calcium transport entry in assay [2] (2340 pmol/day) is reported as “does not promote intestinal calcium transport”; in assay [2] (35100 pmol/day) it was “significant intestinal calcium transport activity”. Besides, the “intestinal calcium transport activity compared to 1,25(OH)2D3 (in words)” value in assay [2] (overall) was “very little activity”. For the same molecule, the “potency on HL-60 cell differentiation compared to 1,25(OH)2D3 (in words)” value with HL-60 cells is “almost as potent as 1,25(OH)2D3”. Further, the bone calcium mobilization entry in assay [3] (2340 pmol/day ip for 4 consecutive days, vitamin D-deficient rats, 0.02% Ca diet) is listed as “did not result in mobilization of bone calcium”; in assay [3] (35100 pmol/day, vitamin D-deficient rats, 0.02% Ca diet), “without any effect”. Also, the “bone calcium mobilization activity compared to 1,25(OH)2D3 (in words)” value in assay [3] (overall) is “very little bone calcium mobilization activity”. The Ki (commonly the equilibrium dissociation constant of an inhibitor or competing ligand from its target) in assay [4] worked out at 0.05 nM. Also, the “binding to vitamin D receptor compared to standard 1,25-(OH)2D3 (in words)” value in assay [4] is reported as “bound almost equally to the receptor”.
